Experimental data taken from patent US20030204063A1, “Modified biological peptides with increased potency” (priority 2003, published 2003).

System: CD1 mice
Assay: Oral Glucose Tolerance Test (OGTT)
Assay type: in vivo
Settings: for integrated increase in blood glucose (area under the curve of delta blood glucose) over 120 min following glucose administration: fasted female CD1 mice, mean±SEM
Method: Oral Glucose Tolerance Test (OGTT)
Six-week old female CD1 mice (Charles River) were fasted for at least 16 hours. Mice were given 1.5 mg of glucose per gram of body weight orally in water through a gastric savage tube at t=o min and blood was collected from a tail vein at t=0, 10, 20, 30, 60, 90 and 120 min for measurement of blood glucose using a glucose meter (Lifescan). Peptides or vehicle were injected subcutaneously 5 min prior to the glucose administration. Data were expressed as the area under the curve, calculated from the change (delta) in blood glucose for each time, using the trapezoidal rule. Therefore, the data represent the integrated increase in blood glucose over a 120 min period following glucose administration. Data presented are the mean±SEM of 4 to 11 animals per group.
All peptides, including wild-type GLP-1 (7-37), were tested in the OGTT test at 3 different concentrations: 1, 5 and 10 ug per mouse. In a first set of experiments (study A), peptide 3 was tested in comparison with vehicle and hGLP-1(7-37). In a second set of experiments (study B), peptides 1 and 2 were tested in comparison with vehicle and hGLP-1 (7-37).

[1] = studies A and B, 1, 5 and 10 ug per mouse subcutaneously

## ((+,−)-cis-2-Ethylcyclopropylacetic acid-His^7)-hGLP-1 (7-37) [peptide 2]
Study B, 5 ug per mouse subcutaneously 5 min prior to oral glucose 1.5 mg/g
  integrated increase in blood glucose (area under the curve of delta blood glucose) over 120 min following glucose administration: −17±67 mM×120 min
Study B, 10 ug per mouse subcutaneously 5 min prior to oral glucose 1.5 mg/g
  integrated increase in blood glucose (area under the curve of delta blood glucose) over 120 min following glucose administration: 61±64 mM×120 min
Study B, OGTT, subcutaneous
  biological potency compared with wild type GLP-1 (7-37) (in words): marked increased biological potency

## (Hexanoyl-trans-3-His^7)-hGLP-1 (7-37) [peptide 3]
Study A, 10 ug per mouse subcutaneously 5 min prior to oral glucose 1.5 mg/g
  integrated increase in blood glucose (area under the curve of delta blood glucose) over 120 min following glucose administration: 9±26 mM×120 min

## hGLP(7-37) (HAEGTFTSDVSSYLEGQAAKEFIAWLVKGRG; Glucagon-like peptide 1; UniProt P01275 98-128, looked up, fragment) [wt GLP-1, wild type human glucagon-like peptide 1 (7-37), comparator in the OGTT, reference compound]
[1]
  ability to completely suppress the glucose response (in words): not able to completely suppress the glucose response at any dose
  effect on the glucose response (in words): dose-related decrease in the glucose response
